Patent US12098145B2 (Libra Therapeutics, Inc., priority 2022, dated 2024)

How the values were obtained:
TRPML1 = molecular target: T1, TRPML1 (Homo sapiens, UniProt Q9GZU1); test: Cellular TRPML1 assay (FLIPR, GCaMP6f calcium read-out); format: cell-based; settings: HEKT-REx/GCaMP6f/TRPML1 cells, FLIPR TETRA, kinetic response over 300 seconds; read-out: TRPML1 FLIPR pEC50 (converted)
T1 construct: expressed in transfected cells; host or cells: HEK T-REx cells stably expressing GCaMP6f and TRPML1
T1 sequence (Q9GZU1 whole entry): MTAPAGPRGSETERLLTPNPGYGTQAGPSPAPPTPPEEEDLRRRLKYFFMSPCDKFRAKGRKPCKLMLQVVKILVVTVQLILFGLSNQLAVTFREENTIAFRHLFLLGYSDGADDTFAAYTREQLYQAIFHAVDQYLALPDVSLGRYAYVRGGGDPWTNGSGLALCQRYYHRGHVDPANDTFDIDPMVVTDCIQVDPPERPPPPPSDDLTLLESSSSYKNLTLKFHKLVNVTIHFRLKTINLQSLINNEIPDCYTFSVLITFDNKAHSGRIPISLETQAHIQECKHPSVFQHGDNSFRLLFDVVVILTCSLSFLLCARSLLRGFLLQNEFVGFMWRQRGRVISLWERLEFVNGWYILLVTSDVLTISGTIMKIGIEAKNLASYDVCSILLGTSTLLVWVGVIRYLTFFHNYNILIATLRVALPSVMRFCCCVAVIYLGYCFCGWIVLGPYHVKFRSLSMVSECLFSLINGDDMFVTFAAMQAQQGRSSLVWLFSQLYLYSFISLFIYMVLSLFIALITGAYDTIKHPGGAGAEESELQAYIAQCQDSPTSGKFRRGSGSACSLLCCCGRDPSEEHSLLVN
How it was run: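 HEK T-REx cells stably expressing TRPML1 and GCaMP6f, seeded 24 h before in Optimem + 0.5% FBS. After ~10 min pre-incubation at room temperature, compounds in Ca2+-free Tyrode's buffer were injected on FLIPR Tetra (final DMSO 0.5%). Calcium fluorescence kinetics followed for 300 s.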

TFEB = TFEB translocation assay (TFEB reporter in U2OS cells, imaging); format: cell-based; settings: Homo sapiens; U2OS cell line with TFEB reporter, 2 hours incubation, nucleus to cytoplasm ratio, normalized to Torin-1; read-out: TFEB Translocation pEC50 (converted)
Experimental: Example B: TFEB Translocation Assay
Reporter TFEB: the reporter is fused to a sequence of monomeric red fluorescent protein.
The reporter TFEB have been stably expressed in U2OS cell line and used as read-out.
Experiments were performed in 384 MTP well format. Cells were seeded in 384-w at a density of 4000 cells/well in 20 μl/well complete growth medium without antibiotics. Twenty-four hours later, cells were treated with compounds and incubated for further 2 hours. Then the cells were imaged and assayed for the response to various compounds using the reporter for TFEB expressed in the cells as readout.
The experiments were performed in a 384-well format according to the following procedure: • 24 h after seeding, cell culture medium was carefully removed and replaced with 20 μl of Opti-MEM (30′ incubation at 37° C. before compound addition) • Then, cells were incubated with compounds diluted in Opti-MEM+0.015% Tween 80 at the desired concentration, with the reference molecule (agonist) Torin-1 at a top concentration of 1 μM (max signal), and with the other reference molecule (agonist) MLSA-5 at top concentration of 20 μM for 2 hours at 37° C. and 5% CO2. The final percentage of DMSO was 0.5% in all the conditions. • Staining of the nuclei was obtained by incubating the cells with 24 μM/well of Hoechst 3342 in standard Tyrode's buffer for 15 min at RT • Then the cells were fixed with PFA 4% for 30 min at RT • After three washes with standard Tyrode's buffer, samples were acquired by recording two fluorescence emission channels (DS-red and blue) at 20× magnification and with at least 3 fields of view per well in an Operetta CLS microscope (PerkinElmer). • Image analysis was performed by using Harmony software (PerkinElmer). The image analysis involved the following steps: flat-field illumination correction, nuclei segmentation, cytoplasm segmentation and calculation of intensity fluorescence in the cytosol and nuclei compartments. Measurements of signal intensity ratio (nucleus to cytoplasm) was used to obtain information on the effects of compounds on the TFEB translocation. • Data from image analysis measurements were finally loaded and analyzed for normalization and fitting procedures in Genedata Screener© software. Data Analysis
Feature: Mean translocation ratio (mean/well)
Data normalization: Stimulator—Neutral control
The GeneData Screener method we have used, normalizes the median of the Stimulator control wells (Torin-1) to 100% and the median of the Neutral control wells (DMSO) to 0% Activity[%]=100*(x−<Min>)/(<“Max”>−<Min>)

SMILES	EC50 (TRPML1) [nM]	EC50 (TFEB) [nM]
CCOCc1oc(N2CCCC2)nc1C(=O)Nc1ccc(N2CCCCC2)c(F)c1 [Example 100, 5-(ethoxymethyl)-N-[3-fluoro-4-(piperidin-1-yl)phenyl]-2-(pyrrolidin-1-yl)oxazole-4-carboxamide]	1000 to 10000	1000 to 10000
CC(C)Cc1oc(N2CCCC2)nc1C(=O)Nc1ccc(OC2CCCC2(F)F)c(F)c1 (stereo not drawn) [Example 111, N-(4-((2,2-difluorocyclopentyl)oxy)-3-fluorophenyl)-5-isobutyl-2-(pyrrolidin-1-yl)oxazole-4-carboxamide]	1000 to 10000	10 to 1000
Cc1oc(N2CCCC2)nc1C(=O)Nc1ccc(N2CCCCC2)c(F)c1 [Example 112, N-(3-fluoro-4-(piperidin-1-yl)phenyl)-5-methyl-2-(pyrrolidin-1-yl)oxazole-4-carboxamide]	1000 to 10000	1000 to 10000
Cc1oc(N2CCOCC2)nc1C(=O)Nc1ccc(N2CCCCC2)c(F)c1 [Example 116, N-(3-fluoro-4-(piperidin-1-yl)phenyl)-5-methyl-2-morpholinooxazole-4-carboxamide]	10000 to 100000	10000 to 100000
Cc1oc(-n2cccn2)nc1C(=O)Nc1ccc(N2CCCCC2)c(F)c1 [Example 118, N-(3-fluoro-4-(piperidin-1-yl)phenyl)-5-methyl-2-(1H-pyrazol-1-yl)oxazole-4-carboxamide]	10000 to 100000	1000 to 10000
COCC1(C)CN(c2nc(C(=O)Nc3cc(C)c(O[C@@H]4C[C@@H]5C[C@@H]5C4)c(F)c3)c(CC(F)(F)F)o2)C1 [Example 124, N-(4-(cis-bicyclo[3.1.0]hexan-3-yloxy)-3-fluoro-5-methylphenyl)-2-(3-(methoxymethyl)-3-methylazetidin-1-yl)-5-(2,2,2-trifluoroethyl)oxazole-4-carboxamide]	10 to 1000	10 to 1000
CCC1(COC)CN(c2nc(C(=O)Nc3cc(C)c(O[C@@H]4C[C@@H]5C[C@@H]5C4)c(F)c3)c(CC(F)(F)F)o2)C1 [Example 125, N-(4-(cis-bicyclo[3.1.0]hexan-3-yloxy)-3-fluoro-5-methylphenyl)-2-(3-(methoxymethyl)-3-ethylazetidin-1-yl)-5-(2,2,2-trifluoroethyl)oxazole-4-carboxamide]	10 to 1000	10 to 1000
Cc1cc(NC(=O)c2nc(N3CC(C)(CO)C3)oc2CC(F)(F)F)cc(F)c1O[C@@H]1C[C@@H]2C[C@@H]2C1 [Example 128]	10 to 1000	10 to 1000
Cc1cc(NC(=O)c2nc(N3CC(C)(CO)C3)oc2CC(F)(F)F)cc(F)c1OC1CC2CC(C2)C1 (stereo not drawn) [Example 129, N-(4-(bicyclo[3.1.1]heptan-3-yloxy)-3-fluoro-5-methylphenyl)-2-(3-(hydroxymethyl)-3-methylazetidin-1-yl)-5-(2,2,2-trifluoroethyl)oxazole-4-carboxamide]	10 to 1000	10 to 1000
CCC1(CC)CN(c2nc(C(=O)Nc3cc(C)c(O[C@@H]4C[C@@H]5C[C@@H]5C4)c(F)c3)c(CC(F)(F)F)o2)C1 [Example 131, N-(4-(cis-bicyclo[3.1.0]hexan-3-yloxy)-3-fluoro-5-methylphenyl)-2-(3,3-diethylazetidin-1-yl)-5-(2,2,2-trifluoroethyl)oxazole-4-carboxamide]	10 to 1000	10 to 1000
CC1(CO)CN(c2nc(C(=O)Nc3ccc(OC4CC5CC(C5)C4)c(F)c3)c(CC(F)(F)F)o2)C1 (stereo not drawn) [Example 135, N-(4-(bicyclo[3.1.1]heptan-3-yloxy)-3-fluorophenyl)-2-(3-(hydroxymethyl)-3-methylazetidin-1-yl)-5-(2,2,2-trifluoroethyl)oxazole-4-carboxamide]	10 to 1000	10 to 1000
O=C(Nc1ccc(OC2CC3CC(C3)C2)c(F)c1)c1nc(N2CCCC2)oc1CC(F)(F)F (stereo not drawn) [Example 143, N-(4-(bicyclo[3.1.1]heptan-3-yloxy)-3-fluorophenyl)-2-(pyrrolidin-1-yl)-5-(2,2,2-trifluoroethyl)oxazole-4-carboxamide]	10 to 1000	10 to 1000

Further lines, with some results ahead:

EC50 (TRPML1) [nM]	SMILES	EC50 (TFEB) [nM]
1000 to 10000	Cc1oc(N2CCC3(CC3)C2)nc1C(=O)Nc1ccc(N2CCCCC2)c(F)c1 [Example 91, N-(3-fluoro-4-(piperidin-1-yl)phenyl)-5-methyl-2-(5-azaspiro[2.4]heptan-5-yl)oxazole-4-carboxamide]	1000 to 10000
10000 to 100000	Cc1oc(N2CCC(CO)C2)nc1C(=O)Nc1ccc(N2CCCCC2)c(F)c1 (stereo not drawn) [Example 96, N-(3-fluoro-4-(piperidin-1-yl)phenyl)-2-(3-(hydroxymethyl)pyrrolidin-1-yl)-5-methyloxazole-4-carboxamide]	10000 to 100000
1000 to 10000	CC(C)OCc1oc(N2CCCC2)nc1C(=O)Nc1ccc(N2CCCCC2)c(F)c1 [Example 108, N-(3-fluoro-4-(piperidin-1-yl)phenyl)-5-(isopropoxymethyl)-2-(pyrrolidin-1-yl)oxazole-4-carboxamide]	10 to 1000
1000 to 10000	Cc1oc(N2CCCC2)nc1C(=O)Nc1ccc(OC2CCCC2)c(F)c1 [Example 120, N-(4-(cyclopentyloxy)-3-fluorophenyl)-5-methyl-2-(pyrrolidin-1-yl)oxazole-4-carboxamide]	1000 to 10000
10 to 1000	CCC1(CO)CN(c2nc(C(=O)Nc3cc(F)c(O[C@@H]4C[C@@H]5C[C@@H]5C4)c(Cl)c3)c(CC(F)(F)F)o2)C1 [Example 126, N-(4-(cis-bicyclo[3.1.0]hexan-3-yloxy)-3-chloro-5-fluorophenyl)-2-(3-ethyl-3-(hydroxymethyl)azetidin-1-yl)-5-(2,2,2-trifluoroethyl)oxazole-4-carboxamide]	10 to 1000
10 to 1000	CCC1(CC)CN(c2nc(C(=O)Nc3cc(F)c(O[C@@H]4C[C@@H]5C[C@@H]5C4)c(Cl)c3)c(CC(F)(F)F)o2)C1 [Example 127, N-(4-(cis-bicyclo[3.1.0]hexan-3-yloxy)-3-chloro-5-fluorophenyl)-2-(3,3-diethylazetidin-1-yl)-5-(2,2,2-trifluoroethyl)oxazole-4-carboxamide]	10 to 1000
10 to 1000	COC1(C)CN(c2nc(C(=O)Nc3cc(F)c(O[C@@H]4C[C@@H]5C[C@@H]5C4)c(Cl)c3)c(CC(F)(F)F)o2)C1 [Example 130, N-(4-(cis-bicyclo[3.1.0]hexan-3-yloxy)-3-chloro-5-fluorophenyl)-2-(3-methoxy-3-methylazetidin-1-yl)-5-(2,2,2-trifluoroethyl)oxazole-4-carboxamide]	10 to 1000
1000 to 10000	CC1(C)CN(c2nc(C(=O)Nc3ccc(OC4CCC5CC54)c(F)c3)c(CC(F)(F)F)o2)C1 (stereo not drawn) [Example 140, N-(4-(bicyclo[3.1.0]hexan-2-yloxy)-3-fluorophenyl)-2-(3,3-dimethylazetidin-1-yl)-5-(2,2,2-trifluoroethyl)oxazole-4-carboxamide]	10 to 1000
10 to 1000	COC1(C)CN(c2nc(C(=O)Nc3cc(F)c(O[C@@H]4C[C@@H]5C[C@@H]5C4)c(C#N)c3)c(CC(F)(F)F)o2)C1 [Example 142, N-(4-(cis-bicyclo[3.1.0]hexan-3-yloxy)-3-cyano-5-fluorophenyl)-2-(3-methoxy-3-methylazetidin-1-yl)-5-(2,2,2-trifluoroethyl)oxazole-4-carboxamide]	10 to 1000
